Source: publication PMC9639207 (RSC Advances, 2022)

How the values were obtained:
[1] = target: dipeptidyl peptidase-IV (DPP-IV) (Homo sapiens, UniProt P27487); test: In vitro proteolytic stability against DPP-IV; type: in vitro ADME; settings: for half-life: isolated enzyme dpp iv, pH 7.4
[2] = In vitro stability on incubation with mouse serum; type: in vitro ADME; settings: for half-life at 200 µM: mouse, serum

dipeptidyl peptidase-IV (DPP-IV), sequence (P27487 whole entry, species assumed): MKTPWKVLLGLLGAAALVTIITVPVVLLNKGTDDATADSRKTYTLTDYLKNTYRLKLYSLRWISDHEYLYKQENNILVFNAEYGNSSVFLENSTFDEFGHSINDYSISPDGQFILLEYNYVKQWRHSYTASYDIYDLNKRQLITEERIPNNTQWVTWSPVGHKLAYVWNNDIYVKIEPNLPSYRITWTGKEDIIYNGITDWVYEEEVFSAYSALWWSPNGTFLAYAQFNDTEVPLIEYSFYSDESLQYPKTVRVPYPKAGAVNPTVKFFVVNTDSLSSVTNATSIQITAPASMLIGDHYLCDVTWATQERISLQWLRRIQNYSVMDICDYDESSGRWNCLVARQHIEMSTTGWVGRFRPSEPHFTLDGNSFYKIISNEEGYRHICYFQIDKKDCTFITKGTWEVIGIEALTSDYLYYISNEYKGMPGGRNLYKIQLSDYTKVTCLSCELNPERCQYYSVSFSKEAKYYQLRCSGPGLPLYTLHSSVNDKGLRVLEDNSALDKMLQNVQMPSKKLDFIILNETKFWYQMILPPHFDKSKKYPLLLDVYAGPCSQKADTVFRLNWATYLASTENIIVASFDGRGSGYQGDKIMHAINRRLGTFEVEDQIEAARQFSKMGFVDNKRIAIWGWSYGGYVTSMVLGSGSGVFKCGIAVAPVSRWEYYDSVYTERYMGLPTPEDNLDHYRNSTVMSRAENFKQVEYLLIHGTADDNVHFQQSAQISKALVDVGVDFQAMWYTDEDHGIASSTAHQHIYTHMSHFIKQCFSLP

| Compound | half-life [1] [h] | half-life at 200 µM [2] [h] | Fold in vitro half-life relative to native GLP-1, DPP-IV incubation ([1]; ratio to native GLP-1 (10.2 min), DPP-IV, 37 °C) [fold] | Fold in vitro half-life relative to native GLP-1, serum incubation ([2]; ratio to native GLP-1 (55.7 min), mouse serum, 37 °C) [fold] |
| --- | --- | --- | --- | --- |
| CC[C@H](C)[C@H](NC(=O)[C@H](Cc1ccccc1)NC(=O)[C@H](CCC(=O)O)NC(=O)[C@H](CCCCN)NC(=O)[C@H](C)NC(=O)[C@H](C)NC(=O)[C@H](CCC(N)=O)NC(=O)CNC(=O)[C@H](CCC(=O)O)NC(=O)[C@H](CC(C)C)NC(=O)[C@H](Cc1ccc(O)cc1)NC(=O)[C@H](CO)NC(=O)[C@H](CO)NC(=O)[C@@H](NC(=O)[C@H](CC(=O)N[C@@H]1O[C@H](CO)[C@@H](O)[C@H](O)[C@H]1O)NC(=O)[C@H](CO)NC(=O)[C@@H](NC(=O)[C@H](Cc1ccccc1)NC(=O)[C@@H](NC(=O)CNC(=O)[C@H](CCC(=O)O)NC(=O)[C@H](C)NC(=O)[C@@H](N)Cc1c[nH]cn1)[C@@H](C)O)[C@@H](C)O)C(C)C)C(=O)N[C@@H](C)C(=O)N[C@@H](Cc1c[nH]c2ccccc12)C(=O)N[C@@H](CC(C)C)C(=O)N[C@H](C(=O)N[C@@H](CCCCN)C(=O)NCC(=O)N[C@@H](CCCNC(=N)N)C(=O)NCC(=O)O)C(C)C [Glc-GLP-1-1] | 0.503 ± 0.04 | 1.57 ± 0.127 |  |  |
| CC[C@H](C)[C@H](NC(=O)[C@H](CO)NC(=O)[C@H](CCC(=O)O)NC(=O)[C@H](CC(=O)N[C@@H]1O[C@H](CO)[C@@H](O)[C@H](O)[C@H]1O)NC(=O)[C@H](C)NC(=O)[C@H](C)NC(=O)[C@H](CCC(N)=O)NC(=O)CNC(=O)[C@H](CCC(=O)O)NC(=O)[C@H](CC(C)C)NC(=O)[C@H](Cc1ccc(O)cc1)NC(=O)[C@H](CO)NC(=O)[C@H](CO)NC(=O)[C@@H](NC(=O)[C@H](CC(=O)O)NC(=O)[C@H](CO)NC(=O)[C@@H](NC(=O)[C@H](Cc1ccccc1)NC(=O)[C@@H](NC(=O)CNC(=O)[C@H](CCC(=O)O)NC(=O)[C@H](C)NC(=O)[C@@H](N)Cc1c[nH]cn1)[C@@H](C)O)[C@@H](C)O)C(C)C)C(=O)N[C@@H](C)C(=O)N[C@@H](Cc1c[nH]c2ccccc12)C(=O)N[C@@H](CC(C)C)C(=O)N[C@H](C(=O)N[C@@H](CCCCN)C(=O)NCC(=O)N[C@@H](CCCNC(=N)N)C(=O)NCC(=O)O)C(C)C [Glc-GLP-1-3] | 0.768 ± 0.0583 | 2.31 ± 0.242 |  |  |
| CC[C@H](C)[C@H](NC(=O)[C@H](Cc1ccccc1)NC(=O)[C@H](CCC(=O)O)NC(=O)[C@H](CCCCN)NC(=O)[C@H](C)NC(=O)[C@H](C)NC(=O)[C@H](CCC(N)=O)NC(=O)CNC(=O)[C@H](CCC(=O)O)NC(=O)[C@H](CC(C)C)NC(=O)[C@H](Cc1ccc(O)cc1)NC(=O)[C@H](CO)NC(=O)[C@H](CO)NC(=O)[C@@H](NC(=O)[C@H](CC(=O)O)NC(=O)[C@H](CO)NC(=O)[C@@H](NC(=O)[C@H](Cc1ccccc1)NC(=O)[C@@H](NC(=O)CNC(=O)[C@H](CCC(=O)O)NC(=O)[C@H](C)NC(=O)[C@@H](N)Cc1c[nH]cn1)[C@@H](C)O)[C@@H](C)O)C(C)C)C(=O)N[C@@H](C)C(=O)N[C@@H](Cc1c[nH]c2ccccc12)C(=O)N[C@@H](CC(C)C)C(=O)N[C@H](C(=O)N[C@@H](CC(=O)N[C@@H]1O[C@H](CO)[C@@H](O)[C@H](O)[C@H]1O)C(=O)NCC(=O)N[C@H](C(=O)NCC(=O)O)[C@@H](C)O)C(C)C [Glc-GLP-1-5] | 0.542 ± 0.0233 | 1.89 ± 0.197 |  |  |
| CC[C@H](C)[C@H](NC(=O)[C@H](Cc1ccccc1)NC(=O)[C@H](CCC(=O)O)NC(=O)[C@H](CCCCN)NC(=O)[C@H](C)NC(=O)[C@H](C)NC(=O)[C@H](CCC(N)=O)NC(=O)CNC(=O)[C@H](CCC(=O)O)NC(=O)[C@H](CC(C)C)NC(=O)[C@H](Cc1ccc(O)cc1)NC(=O)[C@H](CO)NC(=O)[C@H](CO)NC(=O)[C@@H](NC(=O)[C@H](CC(=O)N[C@@H]1O[C@H](CO)[C@@H](O[C@@H]2O[C@H](CO)[C@@H](O[C@@H]3O[C@H](CO[C@H]4O[C@H](CO)[C@@H](O)[C@H](O)[C@@H]4O[C@@H]4O[C@H](CO)[C@@H](O[C@@H]5O[C@H](CO)[C@H](O)[C@H](O)[C@H]5O)[C@H](O)[C@H]4NC(C)=O)[C@@H](O)[C@H](O[C@H]4O[C@H](CO)[C@@H](O)[C@H](O)[C@@H]4O[C@@H]4O[C@H](CO)[C@@H](O[C@@H]5O[C@H](CO)[C@H](O)[C@H](O)[C@H]5O)[C@H](O)[C@H]4NC(C)=O)[C@@H]3O)[C@H](O)[C@H]2NC(C)=O)[C@H](O)[C@H]1O)NC(=O)[C@H](CO)NC(=O)[C@@H](NC(=O)[C@H](Cc1ccccc1)NC(=O)[C@@H](NC(=O)CNC(=O)[C@H](CCC(=O)O)NC(=O)[C@H](C)NC(=O)[C@@H](N)Cc1c[nH]cn1)[C@@H](C)O)[C@@H](C)O)C(C)C)C(=O)N[C@@H](C)C(=O)N[C@@H](Cc1c[nH]c2ccccc12)C(=O)N[C@@H](CC(C)C)C(=O)N[C@H](C(=O)N[C@@H](CCCCN)C(=O)NCC(=O)N[C@@H](CCCNC(=N)N)C(=O)NCC(=O)O)C(C)C [Glycan-GLP-1-1(G2)] | 0.818 ± 0.095 | 5.92 ± 0.155 |  |  |
| CC[C@H](C)[C@H](NC(=O)[C@H](Cc1ccccc1)NC(=O)[C@H](CCC(=O)O)NC(=O)[C@H](CCCCN)NC(=O)[C@H](C)NC(=O)[C@H](C)NC(=O)[C@H](CCC(N)=O)NC(=O)CNC(=O)[C@H](CCC(=O)O)NC(=O)[C@H](CC(C)C)NC(=O)[C@H](Cc1ccc(O)cc1)NC(=O)[C@H](CO)NC(=O)[C@H](CO)NC(=O)[C@@H](NC(=O)[C@H](CC(=O)N[C@@H]1O[C@H](CO)[C@@H](O[C@@H]2O[C@H](CO)[C@@H](O[C@@H]3O[C@H](CO[C@H]4O[C@H](CO)[C@@H](O)[C@H](O)[C@@H]4O[C@@H]4O[C@H](CO)[C@@H](O[C@@H]5O[C@H](CO[C@]6(C(=O)O)C[C@H](O)[C@@H](NC(C)=O)[C@H]([C@H](O)[C@H](O)CO)O6)[C@H](O)[C@H](O)[C@H]5O)[C@H](O)[C@H]4NC(C)=O)[C@@H](O)[C@H](O[C@H]4O[C@H](CO)[C@@H](O)[C@H](O)[C@@H]4O[C@@H]4O[C@H](CO)[C@@H](O[C@@H]5O[C@H](CO[C@]6(C(=O)O)C[C@H](O)[C@@H](NC(C)=O)[C@H]([C@H](O)[C@H](O)CO)O6)[C@H](O)[C@H](O)[C@H]5O)[C@H](O)[C@H]4NC(C)=O)[C@@H]3O)[C@H](O)[C@H]2NC(C)=O)[C@H](O)[C@H]1O)NC(=O)[C@H](CO)NC(=O)[C@@H](NC(=O)[C@H](Cc1ccccc1)NC(=O)[C@@H](NC(=O)CNC(=O)[C@H](CCC(=O)O)NC(=O)[C@H](C)NC(=O)[C@@H](N)Cc1c[nH]cn1)[C@@H](C)O)[C@@H](C)O)C(C)C)C(=O)N[C@@H](C)C(=O)N[C@@H](Cc1c[nH]c2ccccc12)C(=O)N[C@@H](CC(C)C)C(=O)N[C@H](C(=O)N[C@@H](CCCCN)C(=O)NCC(=O)N[C@@H](CCCNC(=N)N)C(=O)NCC(=O)O)C(C)C [Glycan-GLP-1-1(G2S2)] | 2.43 ± 0.0717 | 12.3 ± 0.205 |  |  |
| CC[C@H](C)[C@H](NC(=O)[C@H](CO)NC(=O)[C@H](CCC(=O)O)NC(=O)[C@H](CC(=O)N[C@@H]1O[C@H](CO)[C@@H](O[C@@H]2O[C@H](CO)[C@@H](O[C@@H]3O[C@H](CO[C@H]4O[C@H](CO)[C@@H](O)[C@H](O)[C@@H]4O[C@@H]4O[C@H](CO)[C@@H](O[C@@H]5O[C@H](CO)[C@H](O)[C@H](O)[C@H]5O)[C@H](O)[C@H]4NC(C)=O)[C@@H](O)[C@H](O[C@H]4O[C@H](CO)[C@@H](O)[C@H](O)[C@@H]4O[C@@H]4O[C@H](CO)[C@@H](O[C@@H]5O[C@H](CO)[C@H](O)[C@H](O)[C@H]5O)[C@H](O)[C@H]4NC(C)=O)[C@@H]3O)[C@H](O)[C@H]2NC(C)=O)[C@H](O)[C@H]1O)NC(=O)[C@H](C)NC(=O)[C@H](C)NC(=O)[C@H](CCC(N)=O)NC(=O)CNC(=O)[C@H](CCC(=O)O)NC(=O)[C@H](CC(C)C)NC(=O)[C@H](Cc1ccc(O)cc1)NC(=O)[C@H](CO)NC(=O)[C@H](CO)NC(=O)[C@@H](NC(=O)[C@H](CC(=O)O)NC(=O)[C@H](CO)NC(=O)[C@@H](NC(=O)[C@H](Cc1ccccc1)NC(=O)[C@@H](NC(=O)CNC(=O)[C@H](CCC(=O)O)NC(=O)[C@H](C)NC(=O)[C@@H](N)Cc1c[nH]cn1)[C@@H](C)O)[C@@H](C)O)C(C)C)C(=O)N[C@@H](C)C(=O)N[C@@H](Cc1c[nH]c2ccccc12)C(=O)N[C@@H](CC(C)C)C(=O)N[C@H](C(=O)N[C@@H](CCCCN)C(=O)NCC(=O)N[C@@H](CCCNC(=N)N)C(=O)NCC(=O)O)C(C)C [Glycan-GLP-1-3(G2)] | 3.088 ± 0.0183 | 12.3 ± 0.162 |  |  |
| CC[C@H](C)[C@H](NC(=O)[C@H](CO)NC(=O)[C@H](CCC(=O)O)NC(=O)[C@H](CC(=O)N[C@@H]1O[C@H](CO)[C@@H](O[C@@H]2O[C@H](CO)[C@@H](O[C@@H]3O[C@H](CO[C@H]4O[C@H](CO)[C@@H](O)[C@H](O)[C@@H]4O[C@@H]4O[C@H](CO)[C@@H](O[C@@H]5O[C@H](CO[C@]6(C(=O)O)C[C@H](O)[C@@H](NC(C)=O)[C@H]([C@H](O)[C@H](O)CO)O6)[C@H](O)[C@H](O)[C@H]5O)[C@H](O)[C@H]4NC(C)=O)[C@@H](O)[C@H](O[C@H]4O[C@H](CO)[C@@H](O)[C@H](O)[C@@H]4O[C@@H]4O[C@H](CO)[C@@H](O[C@@H]5O[C@H](CO[C@]6(C(=O)O)C[C@H](O)[C@@H](NC(C)=O)[C@H]([C@H](O)[C@H](O)CO)O6)[C@H](O)[C@H](O)[C@H]5O)[C@H](O)[C@H]4NC(C)=O)[C@@H]3O)[C@H](O)[C@H]2NC(C)=O)[C@H](O)[C@H]1O)NC(=O)[C@H](C)NC(=O)[C@H](C)NC(=O)[C@H](CCC(N)=O)NC(=O)CNC(=O)[C@H](CCC(=O)O)NC(=O)[C@H](CC(C)C)NC(=O)[C@H](Cc1ccc(O)cc1)NC(=O)[C@H](CO)NC(=O)[C@H](CO)NC(=O)[C@@H](NC(=O)[C@H](CC(=O)O)NC(=O)[C@H](CO)NC(=O)[C@@H](NC(=O)[C@H](Cc1ccccc1)NC(=O)[C@@H](NC(=O)CNC(=O)[C@H](CCC(=O)O)NC(=O)[C@H](C)NC(=O)[C@@H](N)Cc1c[nH]cn1)[C@@H](C)O)[C@@H](C)O)C(C)C)C(=O)N[C@@H](C)C(=O)N[C@@H](Cc1c[nH]c2ccccc12)C(=O)N[C@@H](CC(C)C)C(=O)N[C@H](C(=O)N[C@@H](CCCCN)C(=O)NCC(=O)N[C@@H](CCCNC(=N)N)C(=O)NCC(=O)O)C(C)C [Glycan-GLP-1-3(G2S2)] | 6.245 ± 0.03 | 23.22 ± 0.148 | 36.7 | 25.0 |
